Reference: article PMC12670405, “Second-Generation AURKA-Targeting PROTACs: Structural Optimization toward in Vivo Degradation in Neuroblastoma” (Journal of Medicinal Chemistry, 2025)
Like-named read-outs stand apart in the source and are kept apart here.

Experiments:
[1] = Metabolic stability in mouse liver microsomes (MLM); format: in vitro ADME, CD-1 mouse; settings: CD-1
Protocol: (§1) Plasma and metabolic stability tests were performed by Eurofins Discovery. For the plasma stability assay, test compounds were incubated in CD-1 mouse plasma for 0, 0.5, 1, 1.5, and 2 h at 37 °C at a concentration of 1 μM. For the metabolic stability assay, test compounds were incubated at 37 °C in either (1) CD-1 mouse liver microsomes (MLM) (0.1 mg/mL) at a concentration of 0.1 μM for 0, 15, 30, 45, and 60 min or (2) CD-1 mouse hepatocytes (MH) (0.7 million viable cells/mL) at a concentration of 1 μM for 0, 0.5, 1, 1.5, and 2 h. At the respective time points, acetonitrile was added to the incubation mixture followed by centrifugation. Samples were analyzed by HPLC-MS/MS and peak areas were recorded for each analyte. Compound stability, expressed as the percentage of parent compound remaining, was calculated by comparing the peak area of the compound at each time point relative to that of the 0h time point. Percentage compound remaining is plotted as a function of time as a logarithmic curve. Half-life (t 1/2) is estimated from the slope of the initial linear range of the curve, assuming first-order kinetics. […] Both plasma and metabolic assay experiments were performed once with 2 replicate samples each.

[2] = Plasma stability assay; format: in vitro ADME, CD-1 mouse; settings: for half-life at 1 μM: read-out: plasma t1/2
Protocol: as §1

[3] = system: NGP; assay: IncuCyte live-cell imaging, antiproliferative effect; format: cell-based; settings: Homo sapiens, 72 h
Text: Human neuroblastoma cell lines NGP, IMR-32, SJNB-8, SK-N-BE(2)-C, SJNB-1, SK-N-SH and SK-N-AS, as well as benign immortalized cell lines RPE and HEK293T were either bought commercially or obtained through research laboratories. […] Screening for mycoplasma contamination occurred routinely on the cells. Human neuroblastoma cell lines SH-SY5Y_shABCB1 & SH-SY5Y_shNTC were generated by transduction with pLKO.1-ABCB1_TRCN0000059683 shRNA (Sigma MISSION SHCLND) or pLKO.1-puro NT shRNA (Sigma MISSION SHC002) vectors respectively (Supplementary Table S6), packaged using Lenti-X293T (Clontech). Transduced cells were selected with 2 μg/mL puromycin. These cells were cultured in DMEM 4.5 g/L D-Glucose, L-Glutamine and 110 mg/L Sodium Pyruvate (Gibco, #11995065) supplemented with 10% fetal bovine serum, 1× Antibiotic-Antimycotic solution (Sigma-Aldrich, #A5955) and 1× MEM nonessential amino acids (Sigma-Aldrich, #M7145). Incubation of all cells occurred at 37 °C and 5% CO2.
Neuroblastoma cells were seeded in 384-well plates at different densities ranging from 1200 to 5000 cells/well and allowed to adhere overnight. RPE and HEK293T were seeded at 200 and 600 cells/well, respectively. Compound treatment was performed using the D300e Digital Dispenser (Tecan) in duplicate or triplicate and cell confluency was monitored over time using the IncuCyte Live-cell imaging system (Sartorius). […] Mean normalized confluences were calculated from 3 individual experiments.
All dose–response curves were computed on GraphPad Prism using the Variable Slope (four parameters) equation. Absolute half-maximal degradation (DC50), growth inhibitory (GI50) and enzymatic inhibitory (IC50) concentrations, as well as inhibition constants (Ki) were derived from dose–response curves via interpolation. Statistical tests were performed on GraphPad Prism and detailed in the figure legends. Unless otherwise stated, “n” in the figure legends indicates the number of independent experiments conducted at different times.

[4] = target: T1, AURKA (Homo sapiens, UniProt O14965); assay: AURKA degradation, Simple Western; format: cell-based; set-up: Representative Western blot showing levels of endogenous proteins MDR1, MYCN, AURKA, and CRBN in untreated cell lines; endogenous in cells; host or cells: NGP, IMR-32, SJNB-8, SK-N-BE(2)-C, SK-N-SH, SK-N-AS, SJNB-1, RPE, HEK293T; settings: for pDC50: AURKA degradation; for DC50: read-out: AURKA DC50;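 as to AURKA Degradation 24h @1000nM: measured in NGP neuroblastoma cells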;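 as to AURKA Degradation 24h @100nM: measured in NGP neuroblastoma cells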
T1 sequence (O14965 1-403): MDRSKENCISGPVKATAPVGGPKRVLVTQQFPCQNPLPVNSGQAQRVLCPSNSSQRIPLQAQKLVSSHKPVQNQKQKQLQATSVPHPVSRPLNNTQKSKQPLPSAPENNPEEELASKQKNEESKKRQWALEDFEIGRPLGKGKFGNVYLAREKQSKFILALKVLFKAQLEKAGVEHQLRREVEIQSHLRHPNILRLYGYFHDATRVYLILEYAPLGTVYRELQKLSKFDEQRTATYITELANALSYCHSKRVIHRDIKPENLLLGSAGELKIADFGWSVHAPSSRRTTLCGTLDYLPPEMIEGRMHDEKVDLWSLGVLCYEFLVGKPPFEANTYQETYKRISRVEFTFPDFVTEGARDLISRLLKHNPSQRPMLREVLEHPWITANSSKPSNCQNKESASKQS
Protocol: Cells were seeded in T-25 flasks at different densities ranging from 1 to 2 million cells per flask and allowed to adhere for 1–2 days. In experiments involving compound treatment, this was done by medium replacement containing the compound(s) of interest in their corresponding concentrations. In competition binding experiments, cells were first pretreated with an excess of MK-5108, thalidomide or MG-132 for 1 h by shaking gently at room temperature prior to addition of SK4454 or SK5527. All samples were normalized to contain the same percentage of DMSO as the negative DMSO controls. Cells were harvested on ice at their respective time points by scraping, washed with ice-cold PBS to collect remaining cells, and centrifuged (2500 rpm, 4 °C). A second washing and centrifugation step was performed prior to collection of the final cell pellets which were then snap-frozen in liquid nitrogen and kept frozen at −80 °C until further processing. Lysis of cell pellets occurred in cold RIPA buffer (0.5% w/v Sodium Deoxycholate, 150 mM NaCl, 50 mM TrisHCl pH 7.5, 0.1% w/v SDS, 1% w/v NP-40) supplemented with protease and phosphatase inhibitors (Roche, #11836145001, #04906845001) by rotating gently at 4 °C for 1h, followed by a centrifugation step for 10 min (10,000 rpm, 4 °C). The supernatant was collected and concentrations of the obtained protein lysates were measured using the Pierce BCA Protein Assay Kit (Thermo Fisher Scientific, #23227).
Simple Western analyses were performed with the Wes instrument (Bio-Techne) using the 12–230 kDa Wes Separation module and the EZ standard pack reagent 1 (Biotechne, #SM-W001, #PS-ST01EZ-8) following the manufacturer’s protocol. Protein lysates were loaded at 0.8 μg/μL under denaturing conditions (0.2 μg/μL for MYCN detection). Chemiluminescence peaks were generated by the Compass Software (Bio-Techne) and the area under the peaks calculated using the Gaussian fit method. Per lane, quantified data were always normalized to that of the loading control (Vinculin) prior to calculating fold changes relative to the negative DMSO control. Mean fold changes are calculated from 3 individual experiments. A list of the primary and secondary antibodies used can be found in the Supporting Information (Supplementary Table S7).
Graphs were generated using GraphPad Prism Software (version 10.1.2) or RStudio (R-4.3.2). All dose–response curves were computed on GraphPad Prism using the Variable Slope (four parameters) equation. Absolute half-maximal degradation (DC50), growth inhibitory (GI50) and enzymatic inhibitory (IC50) concentrations, as well as inhibition constants (Ki) were derived from dose–response curves via interpolation. Statistical tests were performed on GraphPad Prism and detailed in the figure legends. Unless otherwise stated, “n” in the figure legends indicates the number of independent experiments conducted at different times.

[5] = Metabolic stability in mouse hepatocytes (MH); format: in vitro ADME, CD-1 mouse; settings: CD-1
Protocol: as §1

O=C1CCC(N2C(=O)c3cccc(N4CCN(CCOCCOCCNC(=O)[C@]5(Cc6cccc(Nc7nccs7)n6)CC[C@@H](Oc6cccc(Cl)c6F)CC5)CC4)c3C2=O)C(=O)N1 (stereo partly drawn) [PROTAC 1]
microsomal CLint at 0.1 μM [1]: 1480 µL/min/mg
half-life at 1 μM ([2]; CD-1, mouse, plasma): > 2 h
GI50 ([3]; read-out: GI50 72h, 72h): 0.063 µM
GI50 ([3]; read-out: pGI50 (converted)): 0.0631 µM
AURKA Degradation 24h @100nM [4]: 72
AURKA Degradation 24h @1000nM [4]: 66

O=C1CCC(N2C(=O)c3cccc(OCCOCCOCCN4CCN(C(=O)[C@]5(Cc6cccc(Nc7nccs7)n6)CC[C@@H](Oc6cccc(Cl)c6F)CC5)CC4)c3C2=O)C(=O)N1 (stereo partly drawn) [PROTAC 3]
microsomal CLint at 0.1 μM [1]: 456 µL/min/mg
half-life at 1 μM ([2]; CD-1 mouse plasma, 1 μM, 37 °C): 1.32 h
GI50 ([3]; read-out: GI50 72h, 72h): 0.042 µM
GI50 ([3]; read-out: pGI50 (converted)): 0.0417 µM
AURKA Degradation 24h @100nM [4]: 80
AURKA Degradation 24h @1000nM [4]: 77
pDC50 [4]: 8,06
Dmax ([4]; NGP, 24 h treatment): 81%
DC50 [4]: 0.0087 µM

O=C1CCC(N2C(=O)c3ccc(N4CCN(CCNC(=O)[C@]5(Cc6cccc(Nc7nccs7)n6)CC[C@@H](Oc6cccc(Cl)c6F)CC5)CC4)cc3C2=O)C(=O)N1 (stereo partly drawn) [PROTAC 4]
microsomal CLint at 0.1 μM [1]: 656 µL/min/mg
half-life at 1 μM ([2]; CD-1 mouse plasma, 1 μM, 37 °C): > 2 h
plasma t1/2 ([2]; plasma): > 2 h
GI50 ([3]; read-out: GI50 72h, 72h): 0.044 µM
GI50 ([3]; read-out: pGI50 (converted)): 0.0447 µM
AURKA Degradation 24h @100nM [4]: 85
AURKA Degradation 24h @1000nM [4]: 93
pDC50 [4]: 8,32
Dmax ([4]; NGP, 24 h treatment): 97%
DC50 ([4]; NGP, 24 h treatment): 0.005 µM
DC50 [4]: 0.0048 µM

O=C1CCC(Nc2ccc(N3CCN(C(=O)CNC(=O)[C@]4(Cc5cccc(Nc6nccs6)n5)CC[C@@H](Oc5cccc(Cl)c5F)CC4)CC3)cc2)C(=O)N1 (stereo partly drawn) [PROTAC 14]
microsomal CLint at 0.1 μM [1]: 739 µL/min/mg
half-life at 1 μM ([2]; CD-1 mouse plasma, 1 μM, 37 °C): > 2 h
plasma t1/2 ([2]; plasma): > 2 h
GI50 ([3]; read-out: GI50 72h, 72h): 0.046 µM
GI50 ([3]; read-out: pGI50 (converted)): 0.0457 µM
AURKA Degradation 24h @100nM [4]: 61
AURKA Degradation 24h @1000nM [4]: 73
pDC50 [4]: 7,36
AURKA degradation activity (in words) ([4]; NGP, 24 h treatment): significantly stronger degradation activity
Dmax ([4]; NGP, 24 h treatment): 76%
DC50 [4]: 0.0438 µM

O=C1CCN(Cc2ccc(C3CCN(C4CN(C(=O)[C@]5(Cc6cccc(Nc7nccs7)n6)CC[C@@H](Oc6cccc(Cl)c6F)CC5)C4)CC3)nc2)C(=O)N1 [PROTAC 22]
microsomal CLint at 0.1 μM [1]: 693 µL/min/mg
half-life at 1 μM ([2]; CD-1, mouse, plasma): > 2 h
GI50 ([3]; read-out: GI50 72h, 72h): 0.046 µM
GI50 ([3]; read-out: pGI50 (converted)): 0.0468 µM
hepatocyte CLint at 1 μM [5]: < 4.1 µL/min/1e6 cells
AURKA Degradation 24h @100nM [4]: 86
AURKA Degradation 24h @1000nM [4]: 87

O=C1CCN(c2ccc(N3CCN(CC4(F)CCN(C(=O)[C@]5(Cc6cccc(Nc7nccs7)n6)CC[C@@H](Oc6cccc(Cl)c6F)CC5)CC4)CC3)nc2)C(=O)N1 [PROTAC 27]
microsomal CLint at 0.1 μM [1]: 1060 µL/min/mg
half-life at 1 μM ([2]; CD-1, mouse, plasma): > 2 h
GI50 ([3]; read-out: GI50 72h, 72h): 0.046 µM
GI50 ([3]; read-out: pGI50 (converted)): 0.0468 µM
AURKA Degradation 24h @100nM [4]: 88
AURKA Degradation 24h @1000nM [4]: 93

Cc1cc(Nc2ccc(F)c(CC3(C(=O)N4CCC(F)(C(=O)N5CCN(c6ccc(N7CCC(=O)NC7=O)cn6)CC5)CC4)CCN(Cc4cccc(Cl)c4F)CC3)n2)n[nH]1 [PROTAC 34]
GI50 ([3]; read-out: GI50 72h, 72h): 0.084 µM
GI50 ([3]; read-out: pGI50 (converted)): 0.0832 µM
AURKA Degradation 24h @100nM [4]: 83
AURKA Degradation 24h @1000nM [4]: 91

Cc1cc(Nc2ccc(F)c(CC3(C(=O)N4CC(N5CCC(c6ccc(N7CCC(=O)NC7=O)cn6)CC5)C4)CCN(Cc4cccc(Cl)c4F)CC3)n2)n[nH]1 [PROTAC 35]
GI50 ([3]; read-out: GI50 72h, 72h): 0.332 µM
GI50 ([3]; read-out: pGI50 (converted)): 0.331 µM
AURKA Degradation 24h @100nM [4]: 62
AURKA Degradation 24h @1000nM [4]: 69

Cc1cc(Nc2ccc(F)c(CC3(C(=O)N4CCC(CN5CCC(c6ccc(N7CCC(=O)NC7=O)cn6)CC5)CC4)CCN(Cc4cccc(Cl)c4F)CC3)n2)n[nH]1 [PROTAC 36]
GI50 ([3]; read-out: GI50 72h, 72h): 0.06 µM
GI50 ([3]; read-out: pGI50 (converted)): 0.0603 µM
AURKA Degradation 24h @100nM [4]: 58
AURKA Degradation 24h @1000nM [4]: 78

Cc1cc(Nc2ccc(F)c(CC3(C(=O)N4CCC(F)(C(=O)N5CCC(c6ccc(N7CCC(=O)NC7=O)cn6)CC5)CC4)CCN(Cc4cccc(Cl)c4F)CC3)n2)n[nH]1 [PROTAC 38]
GI50 ([3]; read-out: GI50 72h, 72h): 0.146 µM
GI50 ([3]; read-out: pGI50 (converted)): 0.145 µM
AURKA Degradation 24h @100nM [4]: 82
AURKA Degradation 24h @1000nM [4]: 90

O=C1CCC(N2C(=O)c3ccc(OCCOCCNC(=O)[C@]4(Cc5cccc(Nc6nccs6)n5)CC[C@@H](Oc5cccc(Cl)c5F)CC4)cc3C2=O)C(=O)N1 (stereo partly drawn) [SK3277, reference compound]
microsomal CLint at 0.1 μM [1]: 1080 µL/min/mg
half-life at 1 μM ([2]; CD-1 mouse plasma, 1 μM, 37 °C): 1.18 h
GI50 ([3]; read-out: GI50 72h, 72h): 0.052 µM
GI50 ([3]; read-out: pGI50 (converted)): 0.0525 µM
AURKA Degradation 24h @100nM [4]: 81
AURKA Degradation 24h @1000nM [4]: 75
pDC50 [4]: 8,15
Dmax ([4]; NGP, 24 h treatment): 81%
DC50 [4]: 0.007 µM
